Data as given in article PMC12051620, “Molecular basis underlying the specificity of an antagonist AA92593 for mammalian melanopsins” (The Journal of Biological Chemistry, 2025).

Biological target: T1, belcheri melanopsin WT (Branchiostoma belcheri, UniProt Q4R1I4)
T1 construct: expressed in transfected cells; host or cells: COS-1
Assay: GsX GloSensor assay with Gsα/q11
Format: cell-based
Conditions: 16.7 μM AA92593, COS-1 cells
Text: Non-mammalian-type melanopsins were successfully converted into AA92593-susceptible types by introducing Phe-94^2.61/Ser-188^ECL2/Ser-269^6.52 or Phe-207^5.42 (Fig. 6). We attempted to extend the functional conversion targets to invertebrate melanopsin (see Fig. S2). […] We assessed the susceptibility of belcheri and lanceolatum melanopsins to AA92593 using the GsX GloSensor assay with Gsα/q11. In the absence of AA92593, the belcheri melanopsin produced smaller light-dependent cAMP responses than the other melanopsins assessed in this study (Fig. 7A), whereas the lanceolatum melanopsin produced robust cAMP responses upon light illumination (Fig. 7B). […] On the other hand, responses by the lanceolatum melanopsin were insensitive to the antagonist (Fig. 7B), similar to non-mammalian-type melanopsins (Fig. 6, A and D). […]
For GloSensor assay, opsins, GloSensor assay sensor (coded by pGlo-22F), and NanoBiT-tagged G proteins were transiently expressed in COS-1 cells (kindly provided from Dr David Farrens, Oregon Health and Science University) using PEI as described previously ([24], [52]). […] For GFP-fluorescence microscopy, a 35-mm cell culture dish (IWAKI) was transfected with 2 μg melanopsin-GFP plasmid and 8 μg PEI in 400 μl Opti-mem and 1.2 ml D-MEM. […]

T1 sequence (Q4R1I4 1-410 limits assumed): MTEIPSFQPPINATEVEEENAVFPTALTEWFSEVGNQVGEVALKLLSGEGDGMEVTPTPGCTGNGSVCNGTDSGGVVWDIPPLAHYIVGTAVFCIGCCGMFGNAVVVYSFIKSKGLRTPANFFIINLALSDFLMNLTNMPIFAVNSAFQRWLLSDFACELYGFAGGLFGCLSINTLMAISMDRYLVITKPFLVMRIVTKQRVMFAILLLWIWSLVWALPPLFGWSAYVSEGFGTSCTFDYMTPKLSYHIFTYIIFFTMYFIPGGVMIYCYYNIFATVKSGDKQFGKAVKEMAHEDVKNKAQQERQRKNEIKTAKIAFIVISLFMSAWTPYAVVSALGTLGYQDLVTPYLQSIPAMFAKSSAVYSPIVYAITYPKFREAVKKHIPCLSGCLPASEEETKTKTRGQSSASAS

## COc1ccc(S(=O)(=O)N2CCCCC2)cc1C [AA92593]
  reduction of light-induced cellular responses by the addition of AA92593: ~34%
